Experimental data: patent US8241681B2, “Synergistic mixtures of bisabolol and ginger extract” (Symrise AG, priority 2005, dated 2012)

Test system: erythema raised by 24-hour occlusive treatment with SDS (sodium dodecyl sulfate), inside under-arm skin
Experiment: SDS inflammation test (SDS irritation study), reduction in reddening of the skin
Assay type: in vivo, human
Conditions: after 3 days
Procedure: The SDS inflammation test was used as the test model. The study was conducted on the inside under-arm of 20 subjects (9 female, 11 male, age: 24-62 years). The reddening of the skin was recorded with a Minolta-Chromameter CR 300 via the a* value of the La′b′ colour system, which describes the position on the red-green axis. The measurements were taken before and 4-6 hours after raising the erythema by 24-hour occlusive treatment with SDS (sodium dodecyl sulfate). The skin was then treated with the test formulation in question 2 times daily for 3 days. 4-6 h after the last application on day 3, the reddening of the skin was determined and the reduction in reddening was calculated from this.
For the study, a defined amount of the active compound combination C according to the invention was incorporated into an O/W emulsion. For comparison purposes, the comparison active compounds A and B were incorporated into separate O/W emulsions.
Extrapon Ginger (Symrise) comprising 1% of ginger CO2 extract, characterized by 25-33% in total of piquant substances with gingerols, shogaols (<3%) and zingerone (<0.5%) and 38-46% of steam-volatile constituents was employed as comparison active compound A.
Calculation of the synergy index (SI) value according to Kull for the reduction in reddening in the SDS inflammation test for a mixture of bisabolol and ginger extract after a treatment time of 3 days: […]

CC(C)=CCC[C@](C)(O)[C@@H]1CC=C(C)CC1 [Formulation with active compound B, -(-Alpha-)-Bisabolol, natural]
Reduction in reddening relative to the start conditions (a* value) (O/W emulsion applied 2 times daily, 20 subjects, Minolta-Chromameter CR 300, Example 11): 2.42
Placebo-corrected reduction in reddening (a* value) (reduction in reddening active compound minus reduction in reddening placebo, Example 11): 1.02
